# Experimental data as given in patent publication EP2112152A1, “Dihydropteridinones as Plk Inhibitors” (GPC Biotech AG, priority 2008, dated 2009).
# Legend:
# Format in all cases: cell-based
# HCT 116 = assay: SRB cell proliferation assay, HCT 116; settings: Homo sapiens, HCT-116, 18-Cell Line Panel; colon; read-out: IC50 HCT116
# Procedure, shortened: (§1)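 Cells plated 24 h before compound, then exposed 72 h over a concentration range. TCA-fixed, sulforhodamine B-stained, bound dye read at OD520; IC50 derived from % inhibition of proliferation versus DMSO-treated cells.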
# A-431 = assay: SRB cell proliferation assay, A-431; settings: Homo sapiens, 18-Cell Line Panel, skin
# Description: (§2) Cells were exposed to the test compounds at various concentrations appropriate to determine an IC50 for 72 hours. Cell proliferation was measured using the SRB assay according to Shekan et al (J Natl Cancer Inst (1990) 82, 1107-112) in order to estimate the IC50 values shown in Table 3. Briefly, cells were plated in 96 well dishes 24 hours prior to compound addition at the densities specified in Table 5.1. The assay was terminated with the addition of cold TCA to a final concentration of 10% after growth medium has been removed and the plates were incubated over night at 4°C. The plates were then washed 5 times with water and 100µl of a Sulforhodamine B solution (4%) was added to each well. The plates were then incubated for 10 minutes at room temperature before removal of unbound dye by washing with 1% acetic acid. The bound dye was solubilised with 10 mM Trizma base and the absorbance read at OD520.
# (§3) Table 8.1: 18-Cell Line Panel
# SK-MEL-28 = assay: SRB cell proliferation assay, SK-MEL-28; settings: Homo sapiens, 18-Cell Line Panel, melanoma
# Description: as §2, §3
# A-375 = assay: SRB cell proliferation assay, A-375; settings: Homo sapiens, 18-Cell Line Panel, melanoma
# Description: as §2, §3
# HT-29 = assay: SRB cell proliferation assay, HT-29; settings: Homo sapiens, HT-29, 18-Cell Line Panel; colon; read-out: IC50 HT-29
# Procedure, shortened: as §1
# DU 145 = assay: SRB cell proliferation assay, DU 145; settings: Homo sapiens, 18-Cell Line Panel, prostate, read-out: IC50 DU145
# Description: as §2, §3
# OVCAR-3 = assay: SRB cell proliferation assay, OVCAR-3; settings: Homo sapiens, 18-Cell Line Panel, ovary
# Description: as §2, §3
# MDA-MB-231 = assay: SRB cell proliferation assay, MDA-MB-231; settings: Homo sapiens, 18-Cell Line Panel, breast
# Description: as §2, §3
# COLO 205 = assay: SRB cell proliferation assay, COLO 205; settings: Homo sapiens, 18-Cell Line Panel, colon
# Description: as §2, §3
# ACHN = assay: SRB cell proliferation assay, ACHN; settings: Homo sapiens, 18-Cell Line Panel, kidney
# Description: as §2, §3
# PC-3 = assay: SRB cell proliferation assay, PC-3; settings: Homo sapiens, 18-Cell Line Panel, prostate
# Description: as §2, §3
# SK-MEL-5 = assay: SRB cell proliferation assay, SK-MEL-5; settings: Homo sapiens, 18-Cell Line Panel, melanoma
# Description: as §2, §3
# IMR-90 = assay: SRB cell proliferation assay, IMR-90; settings: Homo sapiens, 18-Cell Line Panel, lung, read-out: IC50 IMR-90
# Procedure, shortened: as §1
# HeLa = assay: SRB cell proliferation assay, HeLa; settings: Homo sapiens, 18-Cell Line Panel, cervix
# Description: as §2, §3
# SW620 = assay: SRB cell proliferation assay, SW620; settings: Homo sapiens, SW-620; 18-Cell Line Panel; colon
# Description: as §2, §3
# NCI-H460 = assay: SRB cell proliferation assay, NCI-H460; settings: Homo sapiens, 18-Cell Line Panel, NSCLC
# Description: as §2, §3
# MDA-MB-468 = assay: SRB cell proliferation assay, MDA-MB-468; settings: 18-Cell Line Panel; breast
# Description: as §2, §3
# A549 = assay: SRB cell proliferation assay, A549; settings: Homo sapiens, 18-Cell Line Panel, lung
# Description: as §2, §3
structure (smiles),measurement,setting,value
"CCC1C(=O)N(C)c2cnc(Nc3ccc(C(=O)NC4CCN(C)CC4)cc3OC)nc2N1C1CCCC1 (stereo not drawn) [BI 2536, reference compound]",IC50,HCT 116,< 1 µM
same,IC50,A-431,< 1 µM
same,IC50,SK-MEL-28,< 1 µM
same,IC50,A-375,< 1 µM
same,IC50,HT-29,< 1 µM
same,IC50,DU 145,< 1 µM
same,IC50,OVCAR-3,< 1 µM
same,IC50,MDA-MB-231,< 1 µM
same,IC50,COLO 205,< 1 µM
same,IC50,ACHN,< 1 µM
same,IC50,PC-3,< 1 µM
same,IC50,SK-MEL-5,< 1 µM
same,IC50,IMR-90,> 1 µM
same,IC50,HeLa,< 1 µM
same,IC50,SW620,< 1 µM
same,IC50,NCI-H460,< 1 µM
same,IC50 MDA-MB-468,MDA-MB-468,plateau at ∼50%
same,IC50,A549,< 1 µM
